The text below walks through data of patent US20220233558A1, “METHOD AND COMPOSITION FOR PREDICTING EFFICACY OF BCL2/BCL-XL INHIBITORS ON CANCER” (Ascentage Pharma (Suzhou) Co., Ltd., priority 2019, published 2022).

One test deals with BCL-2:BIM complex (Homo sapiens, UniProt P10415). Briefly: MSD advanced ELISA of BCL-2:BIM complex in Toledo and RS4;11 cells. It counts as cell-based. The note with it: treated for 24 hours. In general terms: An ELISA detects its analyte on a solid surface through an enzyme-linked reagent.
For test [1], the target named is T1, BCL-XL:BIM complex (Homo sapiens, UniProt Q07817). Nature of the test: MSD advanced ELISA of BCL-XL:BIM complex in RS4;11 cells. In kind it is cell-based. More on the design: endogenous in cells; host or cells: Toledo. Particulars: treated for 24 hours. On the procedure: (§1) MSD advanced ELISA is a method similar to enzyme-linked immunosorbent assay (ELISA) except MSD uses electrochemiluminescence (ECL) as a detection technique while ELISA uses a colormetric reaction. In general, a solution (e.g. cell lysate) containing the protein/complex of interest is added to a substrate (e.g., wells in a plate) coated with a capture antibody specifically binding to a protein of interest. After washing, a second antibody specifically binding to a partner protein that binds to the protein of interest is added. The second antibody (or an antibody binding to the second antibody) is linked to an ECL agent, e.g. a ruthenium (Ru) metal ion, and the substrate contains an electrode. In the presence of the partner protein/protein complex, the second antibody binds to the protein complex, and the ruthenium ion will be close enough proximity to the electrode to trigger an oxidation-reduction reaction that produces light which can be detected by a CCD camera. Compared to a traditional ELISA, MSD has many advantages such as higher sensitivity, better dynamic range, less matric effects, less sample required and better efficiencies. As a result, MSD can be used to detect a protein complex in cell lysate.
(§2) Toledo (a diffuse large B cell lymphoma line) and RS4;11 (an acute lymphocytic leukemia line) were chosen for the study. Cells were treated for 24 hours with compounds specified in FIGS. 6A and 7A (Toledo), and FIGS. 6B and 7B (RS4;11; Compound B, ABT-737 and ABT-263 were used the same concentrations for each cell line) and harvested for complex analysis. Both BCL-2:BIM and BCL-XL:BIM complex were analyzed following previously established MSD advanced ELISA methods.

In test [2] the target is T1, BCL-XL:BIM complex. Briefly: MSD advanced ELISA of BCL-XL:BIM complex in Toledo cells. It counts as cell-based. More on the design: endogenous in cells; host or cells: Toledo. The note with it: treated for 24 hours. On the procedure:
as §1, §2

The target of test [3] is T1, BCL-XL:BIM complex. Nature of the test: MSD assay of BCL-XL complexes in gastric and esophageal cancer PDX models. It counts as in vivo. Also noted: endogenous in cells. On the procedure:
as §1, with “Compared to a traditional ELISA, MSD has many advantages such as higher sensitivity, better dynamic range, less matric effects, less sample required and better efficiencies. As a result, MSD can be used to detect a protein complex in cell lysate.” left out
PDX models (including 8 gastric cancers and 3 esophageal cancers) were selected for trials with BCL-2/BCL-XL dual inhibitor Compound A. Models were treated with 100 mg/kg twice weekly dosing schedule for three weeks, and tumor tissues were harvested for complexes analysis (specified in the figure panels) with MSD methods. […] TGI for each animal was calculated.

For a further test, the system named is caspase-3 and PARP. Nature of the test: Cleavage of caspase-3 and PARP (apoptosis markers). It counts as cell-based. The note with it: in cancer cells and in xenograft tumor tissues.
Test [4] deals with BCL-2, MCL-1, BIM, PUMA protein levels. Nature of the test: Western blotting of apoptosis proteins in PDX samples. The note with it: PDX models, Western blot. In kind it is in vivo. On the procedure:
PDX models (including 8 gastric cancers and 3 esophageal cancers) were selected for trials with BCL-2/BCL-XL dual inhibitor Compound A. Models were treated with 100 mg/kg twice weekly dosing schedule for three weeks, and tumor tissues were harvested for complexes analysis (specified in the figure panels) with MSD methods. Pharmacodynamics (PD) and biomarker studies of Compound A treatment were performed by MSD and Western blotting (WB) assays. Specifically, protein extraction was performed with the sample, level of protein complex was measured by MSD methods, and the level of protein was measured by Western Blotting. TGI for each animal was calculated.
For orientation: A western blot detects proteins with antibodies after separation by electrophoresis.

In a further test the target is T2, BCL-w (Homo sapiens, UniProt Q92843).
T2 sequence (Q92843 1-193): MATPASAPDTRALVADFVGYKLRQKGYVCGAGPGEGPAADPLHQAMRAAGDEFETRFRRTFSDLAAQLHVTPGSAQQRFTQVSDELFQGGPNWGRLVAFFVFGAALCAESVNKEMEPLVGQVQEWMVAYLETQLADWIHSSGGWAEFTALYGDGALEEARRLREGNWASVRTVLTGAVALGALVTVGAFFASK
Briefly: Binding affinity to BCL-w protein.

In the next test the target is Mcl-1 protein (Homo sapiens, UniProt Q07820). Nature of the test: Binding affinity to Mcl-1 protein.
The target in the next test is BCL-xL (Homo sapiens, UniProt Q07817). Nature of the test: Binding affinity to BCL-xL protein.
For a further test, the system named is cancer cell lines. Briefly: Cell growth inhibitory activity in vitro. It counts as cell-based. Particulars: subset of cancer cell lines.
The next test addresses BCL-2 (Homo sapiens, UniProt P10415). Nature of the test: Binding affinity to BCL-2 protein.

T1 sequence (Q07817 whole entry, one chain of several): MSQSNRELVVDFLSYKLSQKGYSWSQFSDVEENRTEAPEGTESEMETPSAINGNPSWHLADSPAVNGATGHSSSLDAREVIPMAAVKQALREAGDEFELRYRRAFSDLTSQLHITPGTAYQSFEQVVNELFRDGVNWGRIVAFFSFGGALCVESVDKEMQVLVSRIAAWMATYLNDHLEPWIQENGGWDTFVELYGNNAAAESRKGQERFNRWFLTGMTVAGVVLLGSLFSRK
Chain of BCL-xL (Q07817 whole entry): as the sequence (Q07817 whole entry, one chain of several) above
Chain of BCL-2:BIM complex (P10415 whole entry, one chain of several): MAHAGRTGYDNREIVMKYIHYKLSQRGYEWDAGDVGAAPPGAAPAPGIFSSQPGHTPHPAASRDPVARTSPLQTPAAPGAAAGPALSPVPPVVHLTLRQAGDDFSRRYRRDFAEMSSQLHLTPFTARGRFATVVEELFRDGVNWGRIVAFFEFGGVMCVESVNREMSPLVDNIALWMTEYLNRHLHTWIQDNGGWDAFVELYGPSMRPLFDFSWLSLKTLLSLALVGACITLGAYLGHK
Chain of BCL-2 (P10415 whole entry): as the sequence (P10415 whole entry, one chain of several) above
Chain of Mcl-1 protein (Q07820 whole entry): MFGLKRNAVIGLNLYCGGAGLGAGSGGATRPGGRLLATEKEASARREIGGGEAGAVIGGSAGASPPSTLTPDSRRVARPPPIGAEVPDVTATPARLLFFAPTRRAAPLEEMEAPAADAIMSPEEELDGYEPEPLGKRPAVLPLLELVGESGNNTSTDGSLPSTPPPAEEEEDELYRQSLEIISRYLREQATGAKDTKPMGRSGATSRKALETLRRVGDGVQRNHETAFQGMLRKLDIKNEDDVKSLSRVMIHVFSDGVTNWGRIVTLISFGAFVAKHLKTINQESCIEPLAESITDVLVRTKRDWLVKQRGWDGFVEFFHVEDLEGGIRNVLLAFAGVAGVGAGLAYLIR
Method for BCL-2:BIM complex: Toledo (a diffuse large B cell lymphoma line) and RS4;11 (an acute lymphocytic leukemia line) were chosen for the study. […] Both BCL-2:BIM and BCL-XL:BIM complex were analyzed following previously established MSD advanced ELISA methods.

With `CC1(C)CCC(c2ccc(Cl)cc2)=C(CN2CCN(c3ccc(C(=O)NS(=O)(=O)c4ccc(N[C@H](CCN5CCOCC5)CSc5ccccc5)c(S(=O)(=O)C(F)(F)F)c4)cc3)CC2)C1` [ABT-263], at BCL-2:BIM complex, the “change in BCL-2:BIM complex” value is given as “reduction in BCL-2:BIM complex”. Also, the “disruption of BCL-XL:BIM complex” value at BCL-XL:BIM complex [1] and on BCL-XL:BIM complex [2] was “much less disruption of BCL-XL:BIM complex than Compound B” each time.

For the compound `CN(C)CC[C@H](CSc1ccccc1)Nc1ccc(S(=O)(=O)NC(=O)c2ccc(N3CCN(Cc4ccccc4-c4ccc(Cl)cc4)CC3)cc2)cc1[N+](=O)[O-]` [ABT-737], the “disruption of BCL-XL:BIM complex” value on BCL-XL:BIM complex [1] was “almost no disruption of BCL-xL:BIM complex”; at BCL-XL:BIM complex [2], “much less disruption of BCL-XL:BIM complex than Compound B”.

Regarding `Cc1c(S(C)(=O)=O)c(-c2cc(F)cc(N3CCN(c4ccc(NS(=O)(=O)c5ccc(N[C@H](CCN6CCC(C(=O)OCCP(=O)(O)O)CC6)CSc6ccccc6)c(S(=O)(=O)C(F)(F)F)c5)cc4)CC3)c2)c(-c2ccc(Cl)cc2)n1C(C)C` [Compound A, (R)-2-(1-(3-(4-(N-(4-(4-(3-(2-(4-chlorophenyl)-1-isopropyl-5-methyl-4-(methylsulfonyl)-1H-pyrrol-3-yl)-5-fluorophenyl)piperazin-1-yl)phenyl)sulfamoyl)-2-(trifluoromethylsulfonyl)phenylamino)-4-(phenylthiol)butyl)piperidine-4-carbonyloxy)ethylphosphonic acid], on BCL-XL:BIM complex [3] (PDX models, 100 mg/kg twice weekly for three weeks, MSD assay), the “level of BCL-XL:BIM complex after treatment” value is recorded as “dropped”. Moreover, on BCL-XL:BIM complex [3] (in PDX), the “targeting of BCL-XL versus BCL-2 complex” value was “better in targeting BCL-XL than BCL-2 complex”. The “cleavage of caspase-3 and PARP” value in the test with caspase-3 and PARP is “effectively induces cleavage of caspase-3 and PARP”. Also, the “BCL-2 and MCL-1 anti-death protein levels after treatment” value in test [4] was “significantly or in trend increases”. For the same compound, the “pro-death proteins BIM or PUMA levels after treatment” value in test [4] is recorded as “but not pro-death proteins BIM or PUMA”. In addition, the results for the IC50 at BCL-w, at BCL-xL and at BCL-2 were 9.3 nM, 4.4 nM and 1.6 nM, respectively. Moreover, the “affinity to Mcl-1 protein” value on Mcl-1 protein was “weak affinity”. In the test with cancer cell lines, the “cell growth inhibitory activity” value is on record as “nanomolar potencies”.

With `Cc1c(S(C)(=O)=O)c(-c2cc(F)cc(N3CCN(c4ccc(NS(=O)(=O)c5ccc(N[C@H](CCN6CCC(C(=O)O)CC6)CSc6ccccc6)c(S(=O)(=O)C(F)(F)F)c5)cc4)CC3)c2)c(-c2ccc(Cl)cc2)n1C(C)C` [Compound B, (R)-1-(3-(4-(N-(4-(4-(3-(2-(4-chlorophenyl)-1-isopropyl-5-methyl-4-(methylsulfonyl)-1H-pyrrol-3-yl)-5-fluorophenyl)piperazin-1-yl)phenyl)sulfamoyl)-2-(trifluoromethylsulfonyl)phenylamino)-4-(phenylthio)butyl)piperldine-4-carboxylic acid], the “disruption of BCL-XL:BIM complex” value at BCL-XL:BIM complex [1] and at BCL-XL:BIM complex [2] was “more potently disrupted BCL-XL:BIM than BCL-2:BIM complex” each time.

For orientation: IC50 means the concentration that inhibits the measured activity by half. A high value points to lower potency.
